In patent publication US8354534B2, “Selective opioid compounds” (Alkermes, Inc., priority 2008, dated 2013):

Tested on: morphine inhibition of prostaglandin E2 (PGE2) induced diarrhea
Assay: Antagonism of morphine-inhibited diarrhea in mice
Format: in vivo, mice (Swiss-Webster)
Conditions: morphine 1 mg/kg s.c., PGE2 320 μg/kg at 30 min, watery stools observed, result shown only in figure
Procedure: Albino mice of either sex (Swiss-Webster) weighing 20-30 g were used to determine the ability of an opioid antagonist to antagonize morphine inhibition of prostaglandin E2 (PGE2) induced diarrhea according to the method of Dajani et al. (1979). Briefly, mice are treated at time 0 with morphine, 1 mg/kg s.c. and an opioid antagonist, 60, 180, 240, 300, 360, 480, or 720 mg/kg orally; or 3, 10, 30, 100 or 140 mg/kg i.p; or saline, 0.1 ml/10 gm body weight orally or i.p. Mice are then treated at 30 min with PGE2, 320 μg/kg which consistently produced watery stools in the absence of morphine. […] Eleven to 24 mice were used per dose of an opioid antagonist for the oral and 6 are used for the i.p. routes. Data was analyzed using Fisher's exact probability test (Siegel, 1956). These studies were repeated using naltrexone, 0.005, 0.01, 0.05, 0.1, and 5 mg/kg i.p. and 0.5, 1, 2, and 4 mg/kg orally.

Structure (SMILES) | Inhibition of morphine blockade of PGE2-induced diarrhea
NC(=O)c1ccc2c(c1O)[C@]13CCN(CC4CC4)[C@H](C2)[C@]1(O)CC[C@@H](NC(=O)[C@@H](N)CC(=O)O)C3 [Compound 12] | Inhibition of morphine blockade of PGE2-induced diarrhea
NC(=O)c1ccc2c(c1O)[C@]13CCN(CC4CC4)[C@H](C2)[C@]1(O)CC[C@@H](NC(CC(=O)O)C(=O)O)C3 (some centres unmarked) [Compound 13] | Inhibition of morphine blockade of PGE2-induced diarrhea
